7 compounds from US20120128657A1, “SYNTHETIC MACROCYCLIC COMPOUNDS AND METHODS FOR TREATING CANCER” (priority 2007, published 2012) can be followed below.

The test system of experiment [1] is 4T1 breast tumor cells. As to the kind of experiment: Chamber cell migration assay (Boyden chambers). It counts as cell-based. To be noted: Mus musculus, 10% FBS in lower chamber, 4 h. The protocol:
Chamber Cell Migration Assay: Cell migration was assayed in Boyden chambers [8.0 μm pore size polyethylene terephthalate membrane, FALCON cell culture insert (Becton-Dickinson)]. Cells were trypsinized and counted. 5-10×10^4 cells in serum free medium (300 μl) were added to the upper chamber and 500 μl of appropriate medium with 10% FBS were added to the lower chamber. Transwells were incubated for 4 h at 37° C. Cells on the inside of the transwell inserts were removed with a cotton swab, and cells on the underside of the insert were fixed and stained. Photographs of three random fields were taken and the number of cells counted to calculate the average number of cells that had transmigrated. Results in the form of IC50 values obtained from the chamber migration assay using 4T1 breast tumor cells for compounds 1-6 are presented in Table 1.

The subject of experiment [2] is Bacillus subtilis (ATCC 49343). As to the kind of experiment: Modified disc diffusion antimicrobial assay. It counts as cell-based. To be noted: ATCC49343, B. subtilis, 50 μg/disk, 6 mm disks, 37° C., 18 hours. On the procedure:
Antimicrobial Assays Compounds were tested for antimicrobial activity against Escherichia coli (ATCC 8739) and Bacillus subtilis (ATCC 49343) and for antifungal activity against Candida albicans (ATCC 90027) using a modified disc diffusion assay. Briefly, agar plates seeded with suspensions of bacteria or fungi were prepared by adding 500 μL of a 24 h culture of bacteria to 100 mL of autoclaved Antibiotic Medium 2 (AB2) containing 1% agar and cooled to 55° C., or of fungi to Sabouraud Dextrose Agar (SDA) at 55° C. Seeded liquid agar (10 mL) was transferred immediately to square Petri dishes and allowed to cool for 1 h. Controls used for C. albicans, E. coli and B. subtilis included amphotericin B (25 μg), ampicillin (50 μg) and choloramphenicol (12.5 μg), respectively. Sterile disks (6 mm) containing control antibiotics or one of the macrocycles ([…]) were placed onto the agar and plates were incubated at 37° C. for 18 hours Inhibitory activity was measured by the zones of inhibition.

Experiment [3] deals with 4T1 breast tumor cells. As to the kind of experiment: Cell proliferation assay. It counts as cell-based, mouse. To be noted: DMEM with 10% FBS, cells counted daily (FIG. 1). The protocol: Cell Proliferation Assay: 4T1 breast tumor cells were trypsinized, resuspended in Dulbecco's Modified Eagle Medium (DMEM) with 10% FBS and counted. 5×10^4 cells were plated per well in a 6-well dish and grown in DMEM with 10% FBS. Each day of the assay, one well of each type of cell was trypsinized and the cells were counted.

In experiment [4] the test system is 4T1 breast tumor cells. As to the kind of experiment: In vitro wound-healing assay. The experiment is classed as cell-based, mouse. To be noted: 4T1 cells, medium with 10% FBS, overnight incubation at 37° C. On the procedure:
In vitro Wound-Healing Assay: 4T1 breast tumor cells in medium containing 10% fetal bovine serum (FBS) were seeded into wells of 24-multiwell plates (Becton-Dickinson). After they grew to confluence, wounds were made with sterile pipette tips. Cells were washed with Phosphate Buffered Saline (PBS) and refreshed with medium with or without 10% FBS. After overnight incubation at 37° C., cells were fixed and photographed according to protocols described by Yang, S, and Huang, X.-Y. J. Biol. Chem. 2005, 280, 27130-27137; and Shan, D.; Chen, L.; Njardarson, J. T.; Gaul, C.; Ma, X.; Danishefsky, S. J.; and Huang, X.-Y. Proc. Natl. Acad. Sci. U.S.A. 2005, 102, 3772-3776, both the Yang and Shan references are incorporated herein by reference.

Some results are limits rather than exact numbers.

Consider `CC(C)=CC(=O)O[C@@H]1C[C@]2(O)C[C@@H](OC(=O)CCCC/C=C\CNC2=O)[C@@H]1O` [Compound 6], for which the midpoint of inhibition in the experiment with 4T1 breast tumor cells [1] (unit column prints nM), the IC50, lay at 550 ± 189 nM.
In turn, `CC1(C)S[C@@H]2[C@H](NC(=O)[C@H](N)c3ccccc3)C(=O)N2[C@H]1C(=O)O` [ampicillin, reference compound] displayed a zone of inhibition at 50 µg/disc in experiment [2] of 15 mm.
As for `O=C1CCCC/C=C\CNC(=O)[C@]2(O)C[C@@H](O)[C@@H](O)[C@@H](C2)O1` [Compound 3], the IC50 in the experiment on 4T1 breast tumor cells [1] (unit given in μM) was 525000 ± 163000 nM. This compound also returned a zone of inhibition at 50 µg/disc in experiment [2] of 8.5 mm.
On to `CC(C)(C)OC(=O)NC(Cc1ccccc1)C(=O)O[C@@H]1C[C@]2(O)C[C@@H](OC(=O)CCCC/C=C\CNC2=O)[C@@H]1O` (stereo partly drawn) [Compound 5], for which the IC50 in the experiment on 4T1 breast tumor cells [1] (unit given in μM) is over 500000 nM.
For `O=C1CCCC/C=C/CNC(=O)[C@]2(O)C[C@@H](O)[C@@H](O)[C@@H](C2)O1` [Compound 4], in the experiment with 4T1 breast tumor cells [1] (unit given in μM), the concentration for half-maximal inhibition (IC50) was 12000 ± 2900 nM. In experiment [2], this compound displayed a zone of inhibition at 50 µg/disc of 7.5 mm.
`O=C1CC/C=C\CNC(=O)[C@]2(O)C[C@@H](O)[C@@H](O)[C@@H](C2)O1` [Compound 1]: the IC50 in the experiment with 4T1 breast tumor cells [1] (unit column prints nM) worked out at 77 ± 17 nM. The 4T1 cell proliferation entry with 4T1 breast tumor cells [3] was “does not affect 4T1 cell proliferation”. In addition, the zone of inhibition at 50 µg/disc in experiment [2] was 9 mm. Besides, the “closure of the wound (cell migration)” value with 4T1 breast tumor cells [4] is recorded as “prevented closure of the wound”.
In the experiment with 4T1 breast tumor cells [1] (unit given in μM), `O=C1CC/C=C/CNC(=O)[C@]2(O)C[C@@H](O)[C@@H](O)[C@@H](C2)O1` [Compound 2] gave an IC50 of over 250000 nM.
